The values that follow come from PubChem BioAssay AID743259 (The Scripps Research Institute Molecular Screening Center, 2014).

Each structure is given as a SMILES string. Calls of active or inactive are those of the source. How the calls were made is not given here.

Disintegrin and metalloproteinase domain-containing protein 10 (Homo sapiens), sequence (O14672 214-748 limits assumed): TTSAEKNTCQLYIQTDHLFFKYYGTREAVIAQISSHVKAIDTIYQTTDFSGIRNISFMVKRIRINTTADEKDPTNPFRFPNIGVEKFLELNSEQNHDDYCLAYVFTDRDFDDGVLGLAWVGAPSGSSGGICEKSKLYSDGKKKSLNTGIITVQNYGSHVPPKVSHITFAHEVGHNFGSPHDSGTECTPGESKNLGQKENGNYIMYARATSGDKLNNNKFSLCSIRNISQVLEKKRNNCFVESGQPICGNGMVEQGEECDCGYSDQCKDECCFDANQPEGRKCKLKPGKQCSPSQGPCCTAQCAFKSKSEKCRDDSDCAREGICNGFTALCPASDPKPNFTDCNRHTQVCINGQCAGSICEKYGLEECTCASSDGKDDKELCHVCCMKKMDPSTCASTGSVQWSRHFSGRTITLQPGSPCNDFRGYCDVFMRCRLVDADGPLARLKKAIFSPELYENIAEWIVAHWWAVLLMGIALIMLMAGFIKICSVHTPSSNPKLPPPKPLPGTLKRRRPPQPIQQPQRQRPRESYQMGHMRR

The test has as its target Disintegrin and metalloproteinase domain-containing protein 10 (Homo sapiens) (UniProt O14672). The test can be described thus: ADAM10 protease inhibitors, dose response, selectivity assay for ADAM17 exosite inhibitor project, biochemical, FRET peptide substrate, recombinant human ADAM10 (AID 743259). The following applies: Recombinant ADAM10, FRET peptide substrate cleavage.
As for `COc1cccc(C2C(C#N)=C(N)Oc3c2oc(CO)cc3=O)c1` (centres undefined), the IC50 was > 69.5 µM (inactive).

For `C/C(=N\N=C(/N)SC1CC(=O)N(c2ccc(Br)cc2)C1=O)c1cccs1` (centres undefined), the IC50 result is “inactive”. Regarding `C/C(=N\N=C(/N)SC1CC(=O)N(c2ccccc2)C1=O)c1cccs1` (centres undefined), the IC50 is 9.96 µM. In the case of `COC(=O)c1cccc(Cn2c(Cl)c(/C=N/Nc3ccccc3C)sc2=O)c1`, the IC50 was > 69.5 µM (inactive). For `CC(=NNC(=O)CSc1nnc(-c2ccc(C(C)(C)C)cc2)n1-c1ccccc1)c1cccc2ccccc12` the value was > 69.5 µM (inactive); for `COc1ccc(N(CC(O)Cn2c3ccccc3c3ccccc32)S(=O)(=O)c2ccccc2)cc1` (centres undefined), > 69.5 µM (inactive). For `COCCN=c1scc(-c2cc(OC)c(OC)c(OC)c2)n1/N=C/c1c(C)[nH]c2ccccc12`, the IC50 was > 69.5 µM (inactive). For `Cc1cc(SCC(=O)c2ccc(O)c(O)c2)n2nc(C)c(-c3ccccc3)c2n1` the value was > 69.5 µM (inactive).

For `CC(C)(C)c1ccc(OCc2nc(-c3ccccn3)no2)c(Br)c1`, the IC50 entry is “inactive”.

Consider `O=C(NCC1CCCO1)C(c1cccs1)N(Cc1ccccc1)C(=O)c1ccc(-c2ccccc2)[nH]1` (centres undefined), for which the IC50 is > 69.5 µM (inactive). For `O=C(CC1SC(=O)N(c2ccccc2)C1=O)Nc1ccccc1` (centres undefined) the value was “inactive”; for `CC(=O)c1cccc(NC(=O)C(OC(=O)c2ccccc2NS(=O)(=O)c2cccs2)c2ccccc2)c1` (centres undefined), > 69.5 µM (inactive); for `Cc1ccccc1NC(C)C(=O)N/N=C/c1ccccc1OCc1cccc(Br)c1` (centres undefined), > 69.5 µM (inactive). As for `O=C1OCCN1C(=O)[C@H]1[C@H](c2ccc([N+](=O)[O-])cc2)C(c2ccccc2)=NN1c1ccc(Br)cc1`, the IC50 was > 69.5 µM (inactive). For `CCCOC(=O)c1ccc(Oc2cn[nH]c2-c2ccc(OCC)cc2O)cc1` the value was “inactive”. Regarding `CCOc1ccc(NC(=O)CC2SC(=O)N(c3ccccc3)C2=O)cc1` (centres undefined), the IC50 entry was “inactive”. In the case of `C=C(C)CN1CCN(S(=O)(=O)c2ccc(C)c(N(C)S(=O)(=O)c3ccc(C)cc3)c2C)CC1` it was > 69.5 µM (inactive); in that of `COCCN=c1scc(-c2cc(OC)ccc2OC)n1/N=C/c1c[nH]c2ccccc12`, > 69.5 µM (inactive); in that of `Oc1c(C(c2ccccn2)N2CCCCC2)cc(Cl)c2cccnc12` (centres undefined), 9.05 µM.

As a reminder, the IC50 is the midpoint of a concentration-inhibition curve.
